Laboratory results from ChEMBL document CHEMBL1201862, “PubChem BioAssay data set” (2004).
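Where inhibition never reached the appropriate level, the endpoint shown equals the highest concentration tested. Otherwise, values were interpolated linearly from a five-concentration, 48-hour dose response in 96-well plates. Abbreviation: GI50, concentration required for 50% inhibition of growth.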 Active and inactive are the calls of the source. Cut-off read from the data, not from the text of the source: active = GI50 up to about 1.1 µM and inactive = higher.

Key:
Experiment in all cases: inhibition of tumour cell growth, NCI panel, 48 h
[1] = system: RXF 393
[2] = system: HOP-18
[3] = system: DLD-1
[4] = system: DMS-273
[5] = system: NCI-H460
[6] = system: SK-MEL-28
[7] = system: HCT-116
[8] = system: UACC-257
[9] = system: LXFL 529
[10] = system: EKVX
[11] = system: DMS-114
[12] = system: NCI-H23
[13] = system: RPMI-8226
[14] = system: SF-268
[15] = system: PC-3
[16] = system: T47D
[17] = system: Hs-578T
[18] = system: BT-549
[19] = system: HCT-15
[20] = system: XF498

Compound	GI50 [1]	GI50 [2]	GI50 [3]	GI50 [4]	GI50 [5]	GI50 [6]	GI50 [7]	GI50 [8]	GI50 [9]	GI50 [10]	GI50 [11]	GI50 [12]	GI50 [13]	GI50 [14]	GI50 [15]	GI50 [16]	GI50 [17]	GI50 [18]	GI50 [19] [µM]	GI50 [20]
CC1CCC(=O)C(C(O)CC2CC(=O)N(c3ccccc3)C(=O)C2)C1 (stereo not drawn)	> 100 µM (inactive)	> 100 µM (inactive)	> 100 µM (inactive)	> 100 µM (inactive)	> 100 µM (inactive)	> 100 µM (inactive)	> 100 µM (inactive)	> 100 µM (inactive)	> 100 µM (inactive)	> 100 µM (inactive)	> 100 µM (inactive)	> 100 µM (inactive)	> 100 µM (inactive)	> 100 µM (inactive)						
CCn1c(SCC(=O)N/N=C/c2ccccc2)nc2ccccc2c1=O	7.19 µM (inactive)				2.13 µM (inactive)	39.4 µM (inactive)	5.42 µM (inactive)	21.8 µM (inactive)		26.3 µM (inactive)		31.8 µM (inactive)	14.2 µM (inactive)	15.8 µM (inactive)	15 µM (inactive)	21.7 µM (inactive)	8.41 µM (inactive)	17.3 µM (inactive)	3.87	
COc1ccc2cc(CN3CCC(C4CCN(Cc5ccc6cc(OC)ccc6c5)CC4)CC3)ccc2c1	5.16 µM (inactive)				2.17 µM (inactive)	2.21 µM (inactive)	2.39 µM (inactive)	2.09 µM (inactive)		11.9 µM (inactive)		17.1 µM (inactive)	1.52 µM (inactive)	3.16 µM (inactive)	15.8 µM (inactive)	1.93 µM (inactive)	4.61 µM (inactive)	> 10 µM (inactive)	1.45	
CC12CCC3C(CCC4=CC(O)CCC43C=O)C1(O)CCC2c1ccc(=O)oc1 (stereo not drawn)		0.0107 µM (active)		0.00497 µM (active)	0.00182 µM (active)	0.05 µM (active)	0.05 µM (active)	0.0139 µM (active)		0.0124 µM (active)	0.0014 µM (active)	0.00226 µM (active)	0.05 µM (active)						0.0508	
O=C(NS(=O)(=O)OCC(Cl)(Cl)Cl)SCCC(F)(F)C(F)(F)C(F)(F)C(F)(F)C(F)(F)C(F)(F)F	22.5 µM (inactive)				19.6 µM (inactive)	22.7 µM (inactive)	19.8 µM (inactive)	35.5 µM (inactive)		18.3 µM (inactive)		20.1 µM (inactive)	18.5 µM (inactive)	40.4 µM (inactive)	16.5 µM (inactive)	27.9 µM (inactive)	19 µM (inactive)	49 µM (inactive)	20.9	
Cc1cc(O)nc(NNC(C#N)c2ccc(O)cc2)n1 (stereo not drawn)	> 100 µM (inactive)	> 100 µM (inactive)	> 100 µM (inactive)	> 100 µM (inactive)	> 100 µM (inactive)	> 100 µM (inactive)	> 100 µM (inactive)	> 100 µM (inactive)	> 100 µM (inactive)		> 100 µM (inactive)	> 100 µM (inactive)	> 100 µM (inactive)	> 100 µM (inactive)					> 100	
Oc1ccc(-c2nc3ccc4ccccc4c3c3c2CCCC3)c(O)c1	34.9 µM (inactive)				19.6 µM (inactive)	19.2 µM (inactive)	10.7 µM (inactive)	10.5 µM (inactive)		28.8 µM (inactive)		27.9 µM (inactive)	9.31 µM (inactive)	22.2 µM (inactive)	21.6 µM (inactive)	7.5 µM (inactive)	24.2 µM (inactive)	32.7 µM (inactive)	26.5	
O=C(O)CNC(=O)c1cccc2c(=O)c3ccccc3[nH]c12	> 100 µM (inactive)				> 100 µM (inactive)	> 100 µM (inactive)	> 100 µM (inactive)	> 100 µM (inactive)		> 100 µM (inactive)		> 100 µM (inactive)	> 100 µM (inactive)	> 100 µM (inactive)	> 100 µM (inactive)	> 100 µM (inactive)	> 100 µM (inactive)	91.8 µM (inactive)	> 100	
CC(=O)NC(CCCNC(=O)N(C)N=O)C(=O)NCc1ccccc1 (stereo not drawn)	> 100 µM (inactive)		> 100 µM (inactive)	> 100 µM (inactive)	> 100 µM (inactive)	> 100 µM (inactive)	> 100 µM (inactive)	> 100 µM (inactive)	> 100 µM (inactive)	> 100 µM (inactive)	> 100 µM (inactive)	> 100 µM (inactive)	> 100 µM (inactive)	> 100 µM (inactive)					> 100	> 100 µM (inactive)
COC(=O)/C=c1\s/c(=C\C(=O)OC)c2ccccc12	> 100 µM (inactive)	> 100 µM (inactive)	6.28 µM (inactive)	6.44 µM (inactive)		> 100 µM (inactive)	> 100 µM (inactive)	> 100 µM (inactive)	> 100 µM (inactive)	> 100 µM (inactive)	> 100 µM (inactive)	> 100 µM (inactive)	> 100 µM (inactive)	> 100 µM (inactive)					33.8	
